Values of other authors, collected in patent US4782898A, “Determining residual oil saturation using carbon 14 labeled carbon dioxide” (priority 1986, dated 1988).

| Compound | distribution coefficient, Ki (ratio of concentration of tracer in the oil phase to that in the water phase) |
| --- | --- |
| O=C=O [CO2, carbon dioxide] | about 2 |
| O=[14C]=O [carbon 14 labeled CO2] | about 2 |
